Article PMC9753424 (2022)

Columns and labels:
Test in all cases: bio-layer interferometry
[1] = tested on: MYC-G4 (DNA, G4) TGAGGGTGGGTAGGGTGGGTAA; settings: PBS (ion concentrations not given), 0.5% DMSO, 0.02% Tween-20, 25 °C sensor hydration
[2] = tested on: SPB1-G4 (DNA, G4) GGCGAGGGGCGTGGCCGGC; settings: PBS (ion concentrations not given), 0.5% DMSO, 0.02% Tween-20, highest hemin 8 μM
[3] = tested on: hTELO-G4 (DNA, G4) GGTTAGGGTTAGGGTTAGGGTTAGGGTTAG; settings: PBS (ion concentrations not given), 0.5% DMSO, 0.02% Tween-20, highest hemin 8 μM
[4] = tested on: ssDNA oligonucleotide (DNA, single strand) GGCATAGTGCGTGGGCG; settings: PBS (ion concentrations not given), 0.5% DMSO, 0.02% Tween-20, highest hemin 8 μM
[5] = tested on: intermolecular hTELO-G4 (DNA, G4) TTAGGGTTAGGGTTAGGG; settings: PBS (ion concentrations not given), 0.5% DMSO, 0.02% Tween-20, highest hemin 8 μM
[6] = tested on: double-stranded DNA (DNA, duplex) GGCATAGTGCGTGGGCG/CGCCCACGCACTATGCC; settings: PBS (ion concentrations not given), 0.5% DMSO, 0.02% Tween-20, highest hemin 8 μM

KD ([1]; PpIX 1.25-20 μM)	binding [2]	binding [3]	KD ([1]; hemin 0.5-8 μM)	binding [4]	binding [5]	binding [6]	Compound
3.04 ± 0.05 µM							C=CC1=C(C)c2cc3[nH]c(cc4nc(cc5[nH]c(cc1n2)c(C)c5CCC(=O)O)C(CCC(=O)O)=C4C)c(C)c3C=C
	no	no	1.52 ± 0.04 µM	no	no	no	C=CC1=C(C)c2cc3[n-]c(cc4[n-]c(cc5nc(cc1n2)C(C)=C5C=C)c(C)c4CCC(=O)O)c(CCC(=O)O)c3C.[Cl-].[Fe+3]
